# Results as given in patent publication US6017958A, “Method of treating malignant tumors with thyroxine analogues having no significant hormonal activity” (Octamer, Inc., priority 1997, dated 2000).
# Like-named read-outs stand apart in the source and are kept apart here.
# Assays:
# DU 145 (prostate cancer) = assay: Cytocidal action/growth inhibition, DU 145; format: cell-based; conditions: Homo sapiens
# Procedure: (§1) Seven human cancer cell lines were obtained from the American Tissue Culture Collection (Rockville, Md.) and maintained in the recommended growth media. Cells were seeded into wells (2 cm^2) at a density of 2×10^4 cells/cm^2. Various concentrations of Compounds 1-13 were added to the media at the time of seeding.
# (§2) The cultures were incubated for 72 hours at 37° C. (5% CO2 atmosphere). Following incubation, cells were detached with trypsin and counted in a hemocytometer.
# (§3) I100 designates the concentration at which no viable cells remained; I50 the concentration at which 50% viable cells remained, as compared to a control.
# (§4) E-ras 20 cells were cultured as reported, Bauer et al., 1996, "Modification of growth related enzymatic pathways and apparent loss of tumorigenicity of a ras-transformed bovine endothelial cell line by treatment with 5-iodo-6-amino-1,2-benzopyrone (INH2 BP)" Intl. J. Oncol. 8:239-252; HT-144 (melanoma), DU-145 (prostatic cancer), HeLa (cervical cancer), HL 60 (promyelocytic leukemia), MDA-MB-231 (mammary cancer), SK-Br-3 (mammary cancer), T47D (ductal mammary cancer), A559 (lung cancer) were obtained from American Type Culture Collection (Rockville, Md.) and cultured in prescribed media. The effect of DIME was tested in cultures with a starting cell density of 2×10^4 cells per cm^2 and comparison of the effect of DIME on cell growth (intact cells identified by Trypan blue exclusion) was assayed by direct cell counting after trypsinization in a hemocytometer 72 hours after drug addition.
# (§5) For DIME-exposure experiments cells were seeded into 2 cm^2 wells at a density of 2×10^4 cells/cm^2. DIME at various concentrations was added to the medium at the time of seeding. The cell cultures were then incubated for 3 days (37° C. in 5% at CO2 atmosphere).
# [1] = test system: mouse pituitary thyrotropic tumors / non-malignant mouse pituitary adenoma; conditions: cited from earlier work
# SK-Br-3 (mammary cancer) = assay: Cytocidal action/growth inhibition, SK-Br-3; format: cell-based; conditions: Homo sapiens
# Procedure: as §1, §2, §3, §4, §5
# MDA-MB-231 cells [2] = assay: Flow cytometry / M phase block; format: cell-based, human
# Procedure: The MDA-MB-231 cell line was obtained from ATCC (Rockville, Md., USA) and cells were cultured in T-75 flasks at 37° C. in Minimum Essential Medium-alpha, supplemented with 10% FCS. In controls, not receiving DIME, 0.1 μg/ml colcemid was added to cultures for 4 hrs prior to the collection of metaphase-blocked cells and preparation of cell spreads. […] Cells (10^7) were isolated from T-75 trypsinization for 5 min with 0.025% trypsin, and sedimented by centrifugation, resuspended and kept in 10 ml of 75 mM KC1 at 37° C. for 10 min, resedimented, and fixed in 10 ml methanol-acetic acid, with four successive changes of methanol-acetic acid. An aliquot of the final cell suspension (100 μl) was dropped on ethanol-cleaned slides and air-dried.
# Cells exposed to different treatments were grown to confluence, trypsinized, and washed with phosphate buffered saline (PBS). For nuclear analysis, cells were fixed in Vindelov Citrate cell buffer: sucrose 250 mM, trisodium citrate. 2H20 40 mM, DMSO 50 ml in 1000 ml solution, pH 7.6. Normal human lymphocytes obtained from blood were used as controls. Each cell sample and control was counted with a hemacytometer and the cell concentration was adjusted to 2×10^6 cells/ml. Two million cells from each cell line in a total volume of 2 ml were washed twice with fresh PBS, treated with 200 μg/ml RNAase at 37° C. for 30 min, and stained with 10 μg/ml propidium iodide for 45 min. Flow cytometric analysis was performed on a FACScan benchtop flow cytometer (Becton-Dickinson, San Jose, Calif., USA) equipped with an air-cooled argon laser tuned to 488 nm. Twenty thousand events were collected as six parameter list mode data for analysis and archival storage. Two light scatter parameters (forward and side), propidium iodide fluorescence measured at 575/26 nm and above 620 nm, and doublet discrimination by fluorescence pulse width and area were acquired at 1024 data channel resolution. Acquisition threshold was set on propidium iodide positive events above channel 100. Gating to exclude small debris, large clumps and cell doublets was done post acquisition.
# MDA-MB-231 cells [3] = assay: Time-lapse videomicroscopy of mitosis; format: cell-based, human
# Procedure: Cells in sealed T-25 tissue culture flasks were placed into a temperature-controlled incubation chamber built to enclose an inverted phase-contrast microscope. The chamber was shielded from ambient room light. Every 5 min, the microscope light was switched on for 12s, during which time an image was captured by an imaging system obtained from Compix, Inc. (Mars, Pa., USA). Image sequences were analyzed with software from the same company.
# ^a Mitoses were monitored by timelapse videomicroscopy during
# continuous exposure of cells to DIME;
# ^b Fusion of daughter cells usually occurred within minutes of
# cytokinesis and involved 2-5 daughter cells.
# E-ras cells = assay: DNA cuts (TUNEL); format: cell-based, bovine; conditions: 2-10 μM, 18 hours
# Procedure: E-ras cells (2×10^4 cells/cm^2) were treated with DIME 18 hours prior to the TUNEL assay.
# Assay for DNA cuts, as a signal for apoptosis, was via the terminal deoxynucleotidyl transferase dUTP nick end labeling (TUNEL) reaction as specified by the manufacturer of the assay kit (Boehringer Mannheim, Indianapolis, Ind., USA, Cat. No. 168-4817).
# HT 144 (melanoma) = assay: Cytocidal action/growth inhibition, HT 144; format: cell-based; conditions: Homo sapiens
# Procedure: as §1, §2, §3, §4, §5
# MDA-MB-231 xenografts = conditions: cited from earlier work
# [4] = test system: biosynthetic pathways of DNA, RNA or proteins; assay: Metabolic action and biosynthetic pathways
structure (smiles),measurement,setting,value
"COC(=O)c1cc(I)c(Oc2ccc(OC)cc2)c(I)c1 [Compound 1, Methyl 3,5-diiodo-4-(4'-methoxyphenoxy)benzoate]",IC50,"DU 145 (prostate cancer); DU-145, 72 h, day 3, Table 11, read-out: I50 (day 3)",500 nM
same,IC50,"DU 145 (prostate cancer); DU-145, 72 h, Table 4, read-out: I50",500 nM
same,IC100,"DU 145 (prostate cancer); DU-145, 72 h, Table 4, read-out: I100 (no viable cells remained)",3.5 µM
same,growth of mouse pituitary tumor,[1],no inhibitory activity
same,IC50,"SK-Br-3 (mammary cancer); SK-BR-3, 72 h, day 3, Table 11, read-out: I50 (day 3)",600 nM
same,IC50,"SK-Br-3 (mammary cancer); SK-BR-3, 72 h, Table 4, read-out: I50",600 nM
same,IC100,"SK-Br-3 (mammary cancer); SK-BR-3, 72 h, Table 4, read-out: I100 (no viable cells remained)",5 µM
same,M phase block (nuclei with G2 content of DNA),MDA-MB-231 cells [2]; 18 hrs of drug exposure,"nuclei with a G2 content of DNA had accumulated, indicating M phase block"
same,"cell cycle block in M phase, comparison of DIME and colcemid","MDA-MB-231 cells [2]; colcemid 0.1 μg/ml, 4 hrs",indistinguishable with respect to the cell cycle block in M phase
same,increase of average time spent in mitosis,MDA-MB-231 cells [3]; 1 μM,more than 20 fold
same,mitoses yielding daughter cells which fused (share),MDA-MB-231 cells [3]; 1 μM,Twenty percent
same,rate of entry into mitosis / traversal of interphase,MDA-MB-231 cells [3]; 1 μM,did not affect the rate at which the cells traversed interphase
same,No. of mitosis followed by fusion of daughter cells,"MDA-MB-231 cells [3]; 1.0 μM, 35 mitoses monitored, control 0 of 32",7
same,delay in mitosis,"MDA-MB-231 cells [3]; 1 μM, control approximately 0.5 hr",13 h
same,daughter cells in irregular division (FIG. 12),"MDA-MB-231 cells [3]; 1 μM, control exactly 2",6 daughter cells
same,DNA breaks,E-ras cells,drug concentration-dependent DNA breaks
same,IC50,"HT 144 (melanoma); HT-144, 72 h, day 3, Table 11, read-out: I50 (day 3)",500 nM
same,IC50,"HT 144 (melanoma); HT-144, 72 h, Table 4, read-out: I50",500 nM
same,IC100,"HT 144 (melanoma); HT-144, 72 h, Table 4, read-out: I100 (no viable cells remained)",4 µM
same,dose-response of antitumor effect,MDA-MB-231 xenografts; 0.25 g/kg and 1.0 g/kg,had the same antitumor effect
same,tumor regression,"MDA-MB-231 xenografts; 25-35 days, 0.25 to 1.0 g/kg daily per os, nude mice (Kun et al., 1996)",70-85%
same,"inhibition of biosynthetic pathways of DNA, RNA or proteins",[4],"nor does it inhibit the biosynthetic pathways of DNA, RNA or proteins"
same,metabolic action,[4],no metabolic action
